The values that follow come from patent EP0286364B1, “Substituted Di-t-Butylphenols” (RIKER LABORATORIES, INC., priority 1987, dated 1988).

The test deals with male Hartley strain guinea pigs. Description: Konzett-Rossler in vivo test, antigen challenge of sensitized guinea pigs. The note with it: dosed orally, about 5 to 40 mg/kg, suspension in 4% aqueous acacia; ovalbumin 300 µg/kg intravenously 30 minutes later; bronchoconstrictor response. As to the method: The oral activity of compounds of Formula I may be demonsrated using the Konzett-Rossler in vivo test method. The activity is determined according to the procedure which follows. The Konzett-Rossler technique (H.Konzett and R. Rossler, Naunyn-Schmiedbergs Arch. Pharmakol., 195, 71-74, 1940 is used to assess the effect of compounds of Formula I of the invention on antigen challenge of male Hartley strain guinea pigs (350-500g). Fourteen days after sensitization with ovalbumin (50 mg/kg intraperitoneally) guinea pigs are anesthetized with pentobarbital (70 mg/kg intraperitoneally) and spontaneous respiration is eliminated with succinylcholine (2 mg/kg intra-peritoneally). The trachea is cannulated and respiration is maintained under positive pressure with a minature ventilator (5 ml/breath, 87 breaths/minute, 10 cm water). Bronchoconstrictor responses are represented as increased excursions of the tracing on a physiological recorder of air overflow to the lungs measured by a pneumotachograph in series with a differential pressure transducer. The guinea pigs are pretreated with an antihistamine, for example, chlorpheniramine, and are then dosed orally at a level of about 5 to 40 mg/kg with a suspension of a compound of Formula I of the invention in 4% aqueous acacia. The animals are challenged with ovalbumin (300 »g/kg intravenously) thirty (30) minutes later.

As for `CC(C)(C)c1cc(C(=O)Nc2cccc(-c3nnn[nH]3)c2)cc(C(C)(C)C)c1O.O` [Example 7, 5-[3-(3,5-di-t-butyl-4-hydroxybenzamido)phenyl]tetrazole hydrate], the oral activity result was “good oral activity”.
